Experimental data published in patent US10227331B2 (priority 2015, dated 2019).

Columns and labels:
IMP-1 = IMP-1 (Serratia marcescens, UniProt P52699); assay: biochemical; type: biochemical; details: CCF2-FA substrate, 2 hours at 25° C; read-out: IMP-1 IC50
Summary of the method: (§1)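 Inhibitor was mixed with the metallo-β-lactamase and CCF2-FA. After 2 hours at 25° C, fluorescence of the coumarin–fluorescein cephalosporin substrate was read. IC50 was calculated with a 4-parameter fit.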

NDM-1 = NDM-1 (Klebsiella pneumoniae, UniProt C7C422); assay: biochemical; type: biochemical; details: CCF2-FA substrate, 2 hours at 25° C; read-out: NDM-1 IC50
Summary of the method: as §1

VIM-1 = VIM-1 (Pseudomonas aeruginosa (strain ATCC 15692 / DSM 22644 / CIP 104116 / JCM 14847 / LMG 12228 / 1C / PRS 101 / PAO1), UniProt A0A0F7KYQ8); assay: biochemical; details: CCF2-FA substrate, 2 hours at 25° C
Summary of the method: as §1

[1] = tested on: Escherichia coli expressing NDM-1 (CLB30005, CLB30016); type: cell-based; details: with imipenem 1 μg/ml, 95% inhibition of bacterial growth; for Escherichia coli MITC95: NDM-1 (CLB30016)
Summary of the method: (§2)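 Colonies from overnight 35 °C blood-agar cultures were suspended in saline, diluted 1:100 into 1.1× CAMHB and exposed to test compound with or without imipenem at 1 μg/ml. After 22–24 h at 35 °C, absorbance was read to find the concentration restoring imipenem susceptibility.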

[2] = tested on: Klebsiella pneumoniae expressing VIM-1 (IHMA599644); type: cell-based; details: with imipenem 1 μg/ml, 95% inhibition of bacterial growth; for Klebsiella pneumoniae MITC95: VIM-1 (IHMA599644)
Summary of the method: as §2

[3] = tested on: Serratia marcescens expressing IMP-1 (CL5741); type: cell-based; details: with imipenem 1 μg/ml, 95% inhibition of bacterial growth; for Serratia marcescens MITC95: IMP-1 (CL5741)
Summary of the method: as §2

[4] = tested on: P. aeruginosa expressing IMP-1, efflux+ (MB9798); type: cell-based, Pseudomonas aeruginosa; details: for P. aeruginosa expressing IMP-1, efflux+ (MB9798) MITC95: imipenem at 2 μg/mL, in the presence of a class A, C, D serine β-lactamase inhibitor closely related to relebactam; for Efflux ratio: ratio MITC95 PA_9798/MITC95 PA_9799
Description: (§3) The strain background is Pseudomonas aeruginosa PAO1.

[5] = tested on: P. aeruginosa expressing IMP-1, efflux− (MB9799); assay: Efflux: concentration of MBL inhibitor which restores susceptibility to imipenem; type: cell-based, Pseudomonas aeruginosa; details: imipenem at 2 μg/mL, in the presence of a class A, C, D serine β-lactamase inhibitor closely related to relebactam
Description: as §3

Sequence of NDM-1 (C7C422 whole entry, looked up, species assumed): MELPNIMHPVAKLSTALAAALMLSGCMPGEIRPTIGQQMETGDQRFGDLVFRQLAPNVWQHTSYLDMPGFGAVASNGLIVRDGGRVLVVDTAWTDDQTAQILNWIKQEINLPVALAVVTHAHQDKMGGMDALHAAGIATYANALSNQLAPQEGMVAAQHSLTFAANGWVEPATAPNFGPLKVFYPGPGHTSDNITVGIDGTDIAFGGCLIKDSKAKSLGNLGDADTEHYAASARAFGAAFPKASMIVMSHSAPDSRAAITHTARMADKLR
Sequence of IMP-1 (P52699 whole entry, looked up, species assumed): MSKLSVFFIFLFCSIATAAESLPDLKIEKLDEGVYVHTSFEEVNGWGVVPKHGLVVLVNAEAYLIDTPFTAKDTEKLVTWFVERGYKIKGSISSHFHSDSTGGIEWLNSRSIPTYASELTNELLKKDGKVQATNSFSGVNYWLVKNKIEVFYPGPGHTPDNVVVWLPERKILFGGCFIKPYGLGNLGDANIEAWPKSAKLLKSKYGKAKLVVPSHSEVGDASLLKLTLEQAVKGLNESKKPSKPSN

Row | Structure (SMILES) | IC50 (IMP-1) [nM] | IC50 (NDM-1) [nM] | IC50 (VIM-1) [nM] | Escherichia coli expressing NDM-1 (CLB30016) MITC95 [1] [µM] | Klebsiella pneumoniae expressing VIM-1 (IHMA599644) MITC95 [2] [µM] | Serratia marcescens expressing IMP-1 (CL5741) MITC95 [3] [µM] | P. aeruginosa expressing IMP-1, efflux+ (MB9798) MITC95 [4] [µM] | Efflux ratio [4] | P. aeruginosa expressing IMP-1, efflux− (MB9799) MITC95 [5] [µM] | Escherichia coli MITC95 [1] [µM] | Klebsiella pneumoniae MITC95 [2] [µM] | Serratia marcescens MITC95 [3] [µM]
1 | NS(=O)(=O)c1c(S(=O)(=O)CC2CNC2)ccc([C@H]2CC[C@H](N)CC2)c1-c1nnn[nH]1 [Example 204, 3-((1r,4r)-4-aminocyclohexyl)-6-((azetidin-3-ylmethyl)sulfonyl)-2-(1H-tetrazol-5-yl)benzenesulfonamide] | 37.5 | 16.2 | 1.04 | 0.7813 | 1.563 | 1.563 | 1.563 | 2.00 | 0.7813 |  |  | 
2 | Nc1nc2cccc(-c3ccc(S(=O)(=O)C4CNC4)c(S(N)(=O)=O)c3-c3nn[nH]n3)n2n1 [Example 214, 3-(2-amino-[1,2,4]triazolo[1,5-a]pyridin-5-yl)-6-(azetidin-3-ylsulfonyl)-2-(2H-tetrazol-5-yl)benzenesulfonamide] | 3.32 | 0.139 | 0.221 | 3.125 | 6.25 | 3.125 | 3.125 | 2.00 | 1.563 |  |  | 
3 | NS(=O)(=O)c1c(S(=O)(=O)C2CNC2)ccc(-c2cnc3cc[nH]c3c2)c1-c1nn[nH]n1 [Example 16, 6-(Azetidin-3-ylsulfonyl)-3-(1H-pyrrolo[3,2-b]pyridin-6-yl)-2-(2H-tetrazol-5-yl)benzenesulfonamide] | 2.37 | 0.49 | 0.653 | 0.3906 | 3.125 | 0.7813 | 6.25 | 4.00 | 1.563 |  |  | 
4 | NS(=O)(=O)c1cccc(-c2ccc(S(=O)(=O)C3CNC3)c(S(N)(=O)=O)c2-c2nn[nH]n2)c1 [Example 247, 4-(Azetidin-3-ylsulfonyl)-2-(2H-tetrazol-5-yl)-[1,1′-biphenyl]-3,3′-disulfonamide] | 3.24 | 2.01 | 1.83 |  |  |  | 25 | 15.99 | 1.563 | 1.563 | 3.125 | 1.563
5 | NCCS(=O)(=O)c1ccc(-c2cccc3cn[nH]c23)c(-c2nnn[nH]2)c1S(N)(=O)=O [Example 298, 6-((2-aminoethyl)sulfonyl)-3-(1H-indazol-7-yl)-2-(1H-tetrazol-5-yl) benzenesulfonamide] | 0.3 | 0.425 | 0.257 |  |  |  | 1.563 | 2.00 | 0.7813 | 0.7813 | 1.563 | 1.563
6 | NCCS(=O)(=O)c1ccc(-c2ccccc2NC(=O)CN)c(-c2nn[nH]n2)c1S(N)(=O)=O [Example 340, 2-Amino-N-(4′-((2-aminoethyl)sulfonyl)-3′-sulfamoyl-2′-(2H-tetrazol-5-yl)-[1,1′-biphenyl]-2-yl)acetamide] | 107 | 24.8 | 8.16 |  |  |  | 12.5 | 4.00 | 3.125 | 1.563 | 3.125 | 3.125
7 | NCCS(=O)(=O)c1ccc(-c2cccc(NC(=O)[C@H](N)CO)c2)c(-c2nn[nH]n2)c1S(N)(=O)=O [compound 334, (R)-2-amino-N-(4′-((2-aminoethyl)sulfonyl)-3′-sulfamoyl-2′-(2H-tetrazol-5-yl)-[1,1′-biphenyl]-3-yl)-3-hydroxypropanamide] | 4.54 | 2.53 | 0.504 |  |  |  | 12.5 | 8.00 | 1.563 | 1.563 | 3.125 | 3.125
8 | NS(=O)(=O)c1c(S(=O)(=O)C2CNC2)ccc(C2CCOCC2)c1-c1nn[nH]n1 [Example 222, 6-(azetidin-3-ylsulfonyl)-3-(tetrahydro-2H-pyran-4-yl)-2-(2H-tetrazol-5-yl)benzenesulfonamide] | 4.3 | 1.49 | 2.45 | 3.125 | 3.125 | 3.125 | 100 | 63.98 | 1.563 |  |  | 
9 | NS(=O)(=O)c1c(S(=O)(=O)C2CNC2)ccc(C2=CCS(=O)(=O)CC2)c1-c1nn[nH]n1 [Example 218, 6-(azetidin-3-ylsulfonyl)-3-(1,1-dioxido-3,6-dihydro-2H-thiopyran-4-yl)-2-(2H-tetrazol-5-yl) benzenesulfonamide] | 3.55 | 1.75 | 2.23 | 0.3906 | 3.125 | 1.563 | 12.5 | 8.00 | 1.563 |  |  | 
10 | Nc1nc2c(-c3ccc(S(=O)(=O)[C@H]4CCNC4)c(S(N)(=O)=O)c3-c3nn[nH]n3)cccc2s1 [Example 184, 3-(2-aminobenzo[d]thiazol-4-yl)-6-((S)-pyrrolidin-3-ylsulfonyl)-2-(2H-tetrazol-5-yl)benzenesulfonamide] | 0.243 | 0.0925 | 0.262 | 0.7813 | 1.563 | 0.7813 | 0.7813 | 1.00 | 0.7813 |  |  | 
11 | NS(=O)(=O)c1c(S(=O)(=O)[C@H]2CCNC2)ccc(-c2cccc3nc(C(=O)O)[nH]c23)c1-c1nn[nH]n1 [Example 290, 7-(4-((S)-pyrrolidin-3-ylsulfonyl)-3-sulfamoyl-2-(2H-tetrazol-5-yl)phenyl)-1H-benzo[d]imidazole-2-carboxylic Acid] | 2.96 | 0.472 | 0.5 |  |  |  | 6.25 | 4.00 | 1.563 | 3.125 | 3.125 | 3.125
